Measured values: US10385085B2, “Crystal forms of sialic acid or salt or solvate thereof” (Ultragenyx Pharmaceutical Inc., priority 2015, dated 2019)
Values after ≈ are worked out from the molar mass of the structure shown. Values joined by “and” are separate entries in the source; they are usually repeats but may differ in a detail not shown here. Identical values can stand only once. Like-named read-outs stand apart in the source and are kept apart here.

Key:
Assay type in all cases: physicochemical
[1] = Thermogravimetric/Differential Thermal Analysis (TG/DTA)
Experimental: Approximately, 10 mg of material was weighed into an open aluminium pan and loaded into a simultaneous thermogravimetric/differential thermal analyser (TG/DTA) and held at room temperature. The sample was then heated at a rate of 10° C./min from 25° C. to 300° C. during which time the change in sample weight was recorded along with any differential thermal events (DTA). Nitrogen was used as the purge gas, at a flow rate of 300 cm^3/min.

[2] = 7 day stress stability, physical form by XRPD; settings: for Stability as a physical form (XRPD): 1 week stress test, overall
Experimental: XRPD analysis was carried out on a Panalytical X′pert Pro, scanning the samples between 3 and 35° […]. The material was gently ground and loaded onto a multi well plate with Kapton or mylar polymer film to support the sample. The multi well plate was then loaded into a Panalytical diffractometer running in transmission mode and analysed, using the following experimental conditions.
(§1) The selected Forms (5, 3 and 2) were fully characterized by PLM, XRPD, ^1H NMR and IR spectroscopy, DSC, TG/DTA, GVS (with post-GVS XRPD), Karl Fischer titration for water content and HPLC analysis for purity. All of these forms with the addition of Form 1 were also placed under a stress-stability test, at three different conditions for one week (ambient conditions, 40° C. and 75% relative humidity, 80° C.). In addition to this, an approximate solubility test was conducted on the different solid forms using a solvent addition method.
(§2) All four Forms (1, 2, 3 and 5) were placed under 7 day stress stability testing. This was carried out by placing the four forms under three different conditions for one week. Their physical stability was then analyzed by comparing the diffractograms and the chemical stability was checked by HPLC.

[3] = Gravimetric Vapour Sorption (GVS) with post-GVS XRPD; settings: for Polymorphic form after GVS (XRPD): material reclaimed after GVS run; for DVS, RH at which the form goes to form 1: relative humidity
Experimental: Approximately 10-20 mg of sample was placed into a mesh vapour sorption balance pan and loaded into an IGASorp Moisture Sorption Analyser balance by Hiden Analytical. The sample was subjected to a ramping profile from 40-90% relative humidity (RH) at 10% increments, maintaining the sample at each step until a stable weight had been achieved (98% step completion). After completion of the sorption cycle, the sample was dried using the same procedure to 0% RH, and finally taken back to the starting point of 40% RH. The weight change during the sorption/desorption cycles were plotted, allowing for the hygroscopic nature of the sample to be determined.

[4] = 7 day stress stability, chemical stability by HPLC; settings: for Chemical stability: 1 week stress test, conditions studied; for Sialic acid Area % (HPLC): two injections; for HPLC purity of recovered samples: after 1 week, all three conditions (ambient; 40° C./75% RH; 80° C.)
Experimental: The chemical purity was measured on an Agilent HP1100 HPLC system fitted with an Agilent variable wavelength UV detector. Samples were prepared by dissolving in diluent at a concentration of 1 mg/mL before being analysed under the following HPLC conditions:
as §1, §2

[5] = PLM (morphology) of the solid forms; settings: for PLM (morphology): particle shape
[6] = Approximate aqueous solubility of the solid forms (solvent addition method); settings: for Aqueous Solubility, Solubility in g/L / solubility: deionized water; for solubility: water, thermodynamic from solid
Experimental: as §1
Approximately 50 mg of each form (1, 2, 3 and 5) was weighed into a 2 ml vial. 20 μl aliquots of deionized water was added to each vial until complete dissolution of the solid was observed. The volume was noted down and the approximate water solubility calculated.

[7] = HPLC-UV chemical purity; settings: summary Table 13
Experimental: The chemical purity was measured on an Agilent HP1100 HPLC system fitted with an Agilent variable wavelength UV detector. Samples were prepared by dissolving in diluent at a concentration of 1 mg/mL before being analysed under the following HPLC conditions: […]

[8] = Differential Scanning Calorimetry (DSC)
Experimental: Approximately, 5 mg of material was weighed into an aluminium DSC pan and sealed non-hermetically with a pierced aluminium lid. The sample pan was then loaded into a Seiko DSC6200 (equipped with a cooler) cooled and held at 25° C. Once a stable heat-flow response was obtained, the sample and reference were heated to 210° C. at a scan rate of 10° C./min and the resulting heat flow response monitored. Nitrogen was used as the purge gas, at a flow rate of 50 cm^3/min.

[9] = Slurries of Form 1 at 5° C. followed by XRPD over time
Experimental: Due to the discolouration of samples during slurry experiments in water and water/acetic acid mixtures, slurries of sialic acid (Form 1) were made at 5° C. in water, water/acetic acid (80/20 v/v) mixture, ethyl acetate and acetic acid and stirred for […]. Diffractograms of the slurried solids were recorded after 10 minutes, 4 hours, 20 hours and 28 hours. Form 5 was obtained in slurries containing water at all time points. Form 1 was obtained for acetic acid and ethyl acetate for all time points.

[10] = Competitive slurry experiments (polymorph stability)
Experimental: Competitive slurry experiments were conducted between Forms 1 and 3 and between Forms 1 and 2. A mixture of the two forms (25 mg per form) being investigated was slurried in 1 mL of solvent for one day at 20° C. or 60° C. in five different solvents (acetone, acetic acid, ethanol, ethyl acetate and ethynol).
Competitive slurries were performed to compare the relative stability between two forms at a given temperature in a given solvent.

[11] = 1 week under ambient conditions
[12] = after 1 week under 40° C., 75% RH
[13] = after 1 week under ambient conditions
[14] = stability under ambient conditions
[15] = acetone, ethanol, ethyl acetate, ethynol, 20° C. or 60° C.

With CC(=O)N[C@H]1[C@H]([C@H](O)[C@H](O)CO)OC(O)(C(=O)O)C[C@@H]1O (stereo partly shown) [Form 3, N-acetylneuraminic acid] the “TGA (weight loss)” value [1] was 15.3%, the “TGA Decomposition temperature” value [1] was 176.2° ° C and the “TGA temperature of the weight loss” value [1] was “(80° C.)”. For the same compound, the “Physical form (XRPD) after stress” value ([2]; 1 week at 80° C.) was “to Form 2”, the “Stability as a physical form (XRPD)” value [2] was “not stable” and the “Physical form (XRPD) after stress” value [2, 11] was “converts to Form 2”. The “Stability - XRPD post Stability” value ([2]; at 80° C.) was “Form 2 at 80 °C”, the “Stability - XRPD post Stability” value ([2]; at RT) was “Form 2 at RT” and the “DVS (hygroscopicity)” value [3] was “Goes to form 1”. The “XRPD post DVS” value [3] was “change”, the “Polymorphic form after GVS (XRPD)” value [3] was “converts to Form 1” and the “GVS weight loss (desolvation)” value ([3]; on increase of humidity) was 16%. For the same compound, the “DVS, RH at which the form goes to form 1” value [3] was “RH >50%”, the Chemical stability [4] was “moderate chemical stability” and the “Sialic acid Area % (HPLC)” value [4, 12] was 98.011% and 98.031%. For the same compound, the “Sialic acid Area % (HPLC)” value ([4]; after 1 week under 80° C.) was 99.526% and 99.523%, the “Sialic acid Area % (HPLC)” value [4, 13] was 99.684% and 99.715% and the “HPLC purity of recovered samples” value [4] was “higher than 98%”. The “PLM (morphology), particle size” value [5] was under 30 μm, the “PLM (morphology)” value [5] was “Small needles” and the Approximate solubility ([6]; aqueous) was 188.2 mg/mL. The “Aqueous Solubility, Solubility in g/L” value ([6]; approximate, solvent addition) was 188.2 g/L, the “HPLC (purity)” value [7] was 99.8% and the “DSC (thermal events) Endotherm” value [8] was 107° ° C. and 181.0° ° C.

With CC(=O)N[C@H]1[C@H]([C@H](O)[C@H](O)CO)OC(O)(C(=O)O)C[C@@H]1O (stereo partly shown) [Form 2, N-acetylneuraminic acid] the “TGA Decomposition temperature” value [1] was “at 178.5 °C”, the “Physical form (XRPD) after stress” value ([2]; 1 week at 40° C./75% RH) was “converts to Form 1” and the “Physical form (XRPD) after stress” value ([2]; 1 week at 80° C.) was “stable”. For the same compound, the “Physical form (XRPD) after stress” value [2, 11] was “stable”, the “Stability - XRPD post Stability” value ([2]; at 80° C.) was “Form 2 at 80 °C” and the “Stability - XRPD post Stability” value ([2]; at RT) was “Form 1 + 2 at RT”. For the same compound, the “DVS (hygroscopicity)” value [3] was “Goes to form 1”, the “Hygroscopicity (GVS)” value [3] was “slightly hygroscopic” and the “XRPD post DVS” value [3] was “change”. The “Polymorphic form after GVS (XRPD)” value [3] was “converted to Form 1”, the “DVS, RH at which the form goes to form 1” value [3] was “RH >50%” and the Chemical stability [4] was “good chemical stability”. For the same compound, the “Sialic acid Area % (HPLC)” value [4, 12] was 99.405% and 99.360%, the “Acetic acid Area % (HPLC)” value ([4]; after 1 week under 80° C.) was 0.075% and 0.072% and the “Sodium Pyruvate Area % (HPLC)” value ([4]; after 1 week under 80° C.) was 0.076% and 0.077%. The “Sialic acid Area % (HPLC)” value ([4]; after 1 week under 80° C.) was 99.348% and 99.372%, the “Sialic acid Area % (HPLC)” value [4, 13] was 99.561% and 99.605% and the “HPLC purity of recovered samples” value [4] was “higher than 99.4%”. The “Area % Acetic acid (HPLC)” value ([4]; stability under 40° C., 75% RH) was 0.000%, the “Area % N-acetyl-D-glucosamine (HPLC)” value ([4]; stability under 40° C., 75% RH) was 0.000% and the “Area % N-acetyl-D-mannosamine (HPLC)” value ([4]; stability under 40° C., 75% RH) was 0.000%. For the same compound, the “Area % Sodium Pyruvate (HPLC)” value ([4]; stability under 40° C., 75% RH) was 0.000%, the “Area % Acetic acid (HPLC)” value ([4]; stability under 80° C.) was 0.000% and the “Area % N-acetyl-D-glucosamine (HPLC)” value ([4]; stability under 80° C.) was 0.000%. For the same compound, the “Area % N-acetyl-D-mannosamine (HPLC)” value ([4]; stability under 80° C.) was 0.000%, the “Area % Sialic acid (HPLC)” value ([4]; stability under 80° C.) was 99.601% and 99.566% and the “Area % Sodium Pyruvate (HPLC)” value ([4]; stability under 80° C.) was 0.000% and 0.044%. For the same compound, the “Area % Acetic acid (HPLC)” value [4, 14] was 0.000%, the “Area % N-acetyl-D-glucosamine (HPLC)” value [4, 14] was 0.000% and the “Area % N-acetyl-D-mannosamine (HPLC)” value [4, 14] was 0.000%. The “Area % Sodium Pyruvate (HPLC)” value [4, 14] was 0.000%, the “PLM (morphology), particle size” value [5] was under 30 μm and the “PLM (morphology)” value [5] was “Small needles”. The Approximate solubility ([6]; aqueous) was 105.0 mg/mL, the “Aqueous Solubility, Solubility in g/L” value ([6]; approximate, solvent addition) was 105 g/L and the “HPLC (purity)” value [7] was 99.70% and 99.80%. For the same compound, the “DSC (thermal events) Endotherm” value [8] was 181.0° ° C.

For CC(=O)N[C@H]1[C@H]([C@H](O)[C@H](O)CO)OC(O)(C(=O)O)C[C@@H]1O (stereo partly shown) [Form 1, N-acetylneuraminic acid], the “TGA Decomposition temperature” value [1] was “at 190.2 °C”, the “Form obtained from slurry (XRPD)” value ([9]; acetic acid, all time points) was “Form 1” and the “Form obtained from slurry (XRPD)” value ([9]; ethyl acetate, all time points) was “Form 1”. The “Time to full conversion to Form 5 in slurry” value ([9]; water and water/acetic acid (80:20 v/v)) was at most 10 min, the “Form obtained from slurry (XRPD)” value ([9]; water, all time points (10 minutes to 28 hours)) was “Form 5” and the “Form obtained from slurry (XRPD)” value ([9]; water/acetic acid (80/20 v/v), all time points) was “Form 5”. The “Form recovered from competitive slurry between Forms 1 and 2” value ([10]; acetic acid) was “mixture of Forms 1 and 3”, the “Form recovered from competitive slurry between Forms 1 and 3” value ([10]; acetic acid) was “mixture of Form 1 and 3” and the “Form recovered from competitive slurry between Forms 1 and 2” value [10, 15] was “Form 1 is recovered”. The “Form recovered from competitive slurry between Forms 1 and 3” value [10, 15] was “Form 1 is recovered”, the “Relative stability, competitive slurries between Forms 1 and 2” value ([10]; all studied conditions) was “more stable than Form 2” and the “Relative stability, competitive slurries between Forms 1 and 3” value ([10]; all studied conditions except in acetic acid) was “more stable than Form 3”. The “Overall relative stability of the form” value ([10]; competitive slurries, most of the studied conditions) was “thermodynamically most stable form”, the “Stability as a physical form (XRPD)” value [2] was “stable” and the “Stability - XRPD post Stability” value ([2]; no single condition stated) was “no change”. For the same compound, the “Hygroscopicity (GVS)” value [3] was “very slightly hygroscopic”, the “Stability when exposed to different humidity levels” value [3] was “stable” and the “XRPD post DVS” value [3] was “no change”. For the same compound, the GVS mass difference ([3]; between 0-90% relative humidity) was 1.4%, the “Polymorphic form after GVS (XRPD)” value [3] was “same polymorphic form (Form 1)” and the Chemical stability [4] was “stable”. The “N-acetyl-D-glucosamine Area % (HPLC)” value [4, 12] was 0.079% and 0.081%, the “Sialic acid Area % (HPLC)” value [4, 12] was 99.580% and 99.590% and the “N-acetyl-D-glucosamine Area % (HPLC)” value ([4]; after 1 week under 80° C.) was 0.062%. For the same compound, the N-acetyl-D-glucosamide known impurity [4, 13] was 0.076%, the “Sialic acid Area % (HPLC)” value [4, 13] was 99.705% and 99.711% and the “HPLC purity of recovered samples” value [4] was “higher than 99.5%”. The “PLM (morphology), particle size” value [5] was under 10 μm, the “PLM (morphology)” value [5] was “Small needles” and the solubility ([6]; aqueous, read-out: Approximate solubility) was 98.5 g/L (≈ 318 mM). For the same compound, the solubility ([6]; approximate, solvent addition, read-out: Aqueous Solubility, Solubility in g/L) was 98.5 g/L (≈ 318 mM), the “HPLC (purity)” value [7] was 99.5% and the “DSC (thermal events) Endotherm” value [8] was 188.6° ° C.
